What is called melting point is the temperature of the solid-liquid transition.

`COc1ccc(NC(=N)c2ccccc2)cc1NC(=O)/C=C/c1ccccc1C(F)(F)F` [Example 140, (2E)-N-[5-(iminobenzylamino)-2-methoxyphenyl]-3-(2-trifluoromethylphenyl)-2-propenamide] showed a melting point of 208 to 210 °C.
On to `O=C(C=Cc1ccccc1Cl)Nc1cccc(-c2nc3ccccc3[nH]2)c1` [Example 58, N-[3-(1H-benzimidazol-2-yl)phenyl]-3-(2-chlorophenyl)-2-propenamide], for which the melting point lay in the range of 152 to 154 °C.
As for `Cc1ncccc1Oc1ccc(C(=N)Nc2cc(Cl)cc(NC(=O)C=Cc3ccccc3C(F)(F)F)c2)cc1` [Example 64, N-[3-chloro-5-[[imino[4-[(2-methyl-3-pyridyl)oxy]phenyl]methyl]amino]phenyl]-3-[2-(trifluoromethyl)phenyl]-2-propenamide], the figure is 114 to 119 °C; as for `N=C(Nc1ccc(F)c(NC(=O)/C=C/c2ccccc2Cl)c1)c1cccs1` [Example 16, (2E)-N-[2-fluoro-5-[[imino(2-thienyl)methyl]amino]phenyl]-3-(2-chlorophenyl)-2 propenamide], 215 to 216 °C; as for `Cc1ccccc1/C=C/C(=O)Nc1cccc(NC(=N)c2ccccc2)c1` [Example 40, (2E)-N-[3 (iminobenzylamino)phenyl]-3-(2-methylphenyl)-2-propenamide], 109 to 114 °C.
`O=C(C=Cc1ccccc1Cl)Nc1ccc(NCc2ccccn2)nc1` [Example 44, N-[6-[(2-pyridylmethyl)amino]-3-pyridyl]-3-(2-chlorophenyl)-2-propenamide] returned a melting point of 164 to 165 °C.
`CC(C)c1ccc(NC(=N)c2cccc(NC(=O)C=Cc3ccccc3Cl)c2)cc1` [Example 27, N-[3-[imino(4-isopropylanilino)methyl]phenyl}-2-chlorocinnamamide]: the melting point is 112 to 118 °C.
As for `N=C(Nc1cc(Cl)cc(NC(=O)/C=C/c2ccccc2C(F)(F)F)c1)c1ccccc1` [Example 35, (2E)-N-[3-chloro-5-(iminobenzylamino)phenyl]-3-[2-(trifluoromethyl)phenyl]-2-propenamide], the figure is 137 to 139 °C; as for `Cc1ncccc1Oc1ccc(C(=N)Nc2cc(Cl)cc(NC(=O)C=Cc3ccccc3Cl)c2)cc1` [Example 59, N-[3-chloro-5-[[imino[4-[(2-methyl-3-pyridyl)oxy]phenyl]methyl]amino]phenyl]-3-(2-chlorophenyl)-2-propenamide], 105 to 107 °C.
`N=C(Nc1ccc(Cl)c(NC(=O)/C=C/c2ccccc2C(F)(F)F)c1)c1ccccc1` [Example 141, (2E)-N-[2-chloro-5-(iminobenzylamino)phenyl]-3-(2-trifluoromethylphenyl)-2-propenamide]: the melting point lay in the range of 198 to 199 °C.
Molecule `N=C(Nc1ccc(F)c(NC(=O)/C=C/c2ccccc2C(F)(F)F)c1)c1cccs1` [Example 62, (2E)-N-[2-fluoro-5-[[imino(2-thienyl)methyl]amino]phenyl]-3-[2-(trifluoromethyl)phenyl]-2-propenamide] showed a melting point of 208 to 209 °C.
On to `Cc1ccc(/C=C/C(=O)Nc2cccc(NC(=N)c3ccccc3)c2)cc1` [Example 38, (2E)-N-[3 (iminobenzylamino)phenyl]-3-(4-methylphenyl)-2-propenamide], for which the melting point fell in the range of 147 to 149 °C.
`N=C(Nc1cc(Cl)cc(NC(=O)/C=C/c2ccccc2F)c1)c1ccccc1` [Example 138, (2E)-N-[3-chloro-5-(iminobenzylamino)phenyl]-3-(2-fluorophenyl)-2-propenamide] had a melting point of 186 to 187 °C.
As to `N=C(Nc1cc(Cl)cc(NC(=O)/C=C/c2ccccc2Cl)c1)c1ccccc1` [Example 31, (2E)-N-[3-chloro-5-(iminobenzylamino)phenyl]-3-(2-chlorophenyl)-2-propenamide], the melting point was in the range of 105 to 115 °C.

Source of the values: patent US20040087798A1, “Novel amide compounds” (priority 2000, published 2004).
